Results published in ChEMBL document CHEMBL5625249, “Optimization and antifungal activity of quinoline derivatives linked to chalcone moiety combined with FLC against Candida albicans” (Eur J Med Chem, 2023).
Calls of active or inactive are those of the source. No cut-off for these calls is given here.

Assays:
Candida albicans [1] = assay: Antifungal activity against clinical FLC-resistant Candida albicans 187 measured after 24 hrs by microdilution method; format: functional
Candida albicans [2] = assay: Antifungal activity against clinical FLC-resistant Candida albicans 381 measured after 24 hrs by microdilution method; format: functional
Candida albicans [3] = assay: Antifungal activity against clinical FLC-resistant Candida albicans 602 measured after 24 hrs by microdilution method; format: functional
Candida albicans [4] = assay: Antifungal activity against clinical FLC-resistant Candida albicans 550 measured after 24 hrs by microdilution method; format: functional
Candida albicans [5] = assay: Antifungal activity against clinical FLC-resistant Candida albicans 800 measured after 24 hrs by microdilution method; format: functional
Candida albicans [6] = assay: Antifungal activity against clinical FLC-resistant Candida albicans 4508 measured after 24 hrs by microdilution method; format: functional
Candida albicans [7] = assay: Synergistic antifungal activity against clinical FLC-resistant Candida albicans 187 measured after 24 hrs in presence of fluconazole by microdilution method; format: functional
Candida albicans [8] = assay: Synergistic antifungal activity against clinical FLC-resistant Candida albicans 602 measured after 24 hrs by microdilution method; format: functional
Candida albicans [9] = assay: Synergistic antifungal activity against clinical FLC-resistant Candida albicans 800 measured after 24 hrs by microdilution method; format: functional
Candida albicans [10] = assay: Synergistic antifungal activity against clinical FLC-resistant Candida albicans 799 measured after 24 hrs by microdilution method; format: functional
Candida albicans [11] = assay: Synergistic antifungal activity against clinical FLC-resistant Candida albicans 4508 measured after 24 hrs by microdilution method; format: functional
Candida albicans [12] = assay: Synergistic antifungal activity against FLC-resistant Candida albicans ATCC 10231 measured after 24 hrs by microdilution method; format: functional
Candida albicans [13] = assay: Synergistic antifungal activity against FLC-resistant Candida albicans ATCC 14053 measured after 24 hrs by microdilution method; format: functional
Candida albicans [14] = assay: Synergistic antifungal activity against clinical FLC-resistant Candida albicans 602 assessed as fractional inhibitory concentration index measured after 24 hrs by microdilution method; format: functional
Candida albicans [15] = assay: Synergistic antifungal activity against clinical FLC-resistant Candida albicans 3816 assessed as fractional inhibitory concentration index measured after 24 hrs by microdilution method; format: functional
Candida albicans [16] = assay: Synergistic antifungal activity against clinical FLC-resistant Candida albicans 4508 assessed as fractional inhibitory concentration index measured after 24 hrs by microdilution method; format: functional
Candida albicans [17] = assay: Synergistic antifungal activity against clinical FLC-resistant Candida albicans 3511 assessed as fractional inhibitory concentration index measured after 24 hrs by microdilution method; format: functional
Candida albicans [18] = assay: Synergistic antifungal activity against clinical FLC-resistant Candida albicans 4574 assessed as fractional inhibitory concentration index measured after 24 hrs by microdilution method; format: functional
Candida albicans [19] = assay: Synergistic antifungal activity against FLC-resistant Candida albicans ATCC 14053 assessed as fractional inhibitory concentration index measured after 24 hrs by microdilution method; format: functional
Candida albicans [20] = assay: Synergistic antifungal activity against FLC-resistant Candida albicans ATCC 14053 measured over 48 hrs in presence of fluconazole by time-killing assay; format: functional, organism-based
Candida albicans [21] = assay: Synergistic antifungal activity against FLC-resistant Candida albicans ATCC 14053 assessed as inhibition of rhodamine 6G efflux measured within 30 mins in presence of fluconazole by Rhodamine 6G staining based fluorescence assay; format: functional, organism-based
Candida albicans [22] = assay: Synergistic antifungal activity against FLC-resistant Candida albicans ATCC 14053 assessed as inhibition of hyphal formation by measuring down regulation of ALS3 gene expression at 1 ug/ml measured after 16 to 18 hrs in presence of fluconazole by qRT-PCR analysis; format: functional, organism-based; conditions: dose 1.0 µg/ml, time 16-18 hrs
Candida albicans [23] = assay: Antifungal activity against FLC-resistant Candida albicans ATCC 14053 cultured in SD +10% FBS liquid medium assessed as inhibition of hyphal formation at 1 ug/ml measured after 2 hrs by inverted microscopy; format: functional, organism-based; conditions: dose 1.0 µg/ml
Candida albicans [24] = assay: Synergistic antifungal activity against FLC-resistant Candida albicans ATCC 14053 cultured in SD +10% FBS liquid medium assessed as inhibition of hyphal formation at 1 ug/ml measured after 2 hrs in presence of fluconazole by inverted microscopy; format: functional, organism-based; conditions: dose 1.0 µg/ml
Candida albicans [25] = assay: Synergistic antifungal activity against FLC-resistant Candida albicans ATCC 14053 assessed as reduction in intracellular ATP level at 1 ug/ml measured after 16 to 18 hrs in presence of fluconazole by luminescence assay; format: functional, organism-based; conditions: dose 1.0 µg/ml, time 16-18 hrs
[26] = Toxicity in Balb/c mouse assessed as death at 15 mg/kg, ig measured daily for 6 days; format: organism-based; conditions: in vivo, po, 144 h, time 6 day
[27] = Toxicity in Balb/c mouse assessed as death at 7.5 to 15 mg/kg, ig measured daily for 6 days in presence of fluconazole; format: organism-based; conditions: in vivo, po, 144 h, dose 7.5-15 mg/kg, time 6 day
[28] = Toxicity in Balb/c mouse infected with FLC-resistant Candida albicans ATCC 14053 assessed as weight loss at 15 mg/kg, ig measured daily for 6 days; format: organism-based; conditions: in vivo, po, 144 h, time 6 day
Candida albicans [29] = assay: In vivo antifungal activity against FLC-resistant Candida albicans ATCC 14053 infected in Balb/c mouse assessed as reduction in lung fungal load at 15 mg/kg, ig measured after 6 days; format: functional, organism-based; conditions: time 6.0 day
Candida albicans [30] = assay: In vivo antifungal activity against FLC-resistant Candida albicans ATCC 14053 infected in Balb/c mouse assessed as increase in organ coefficients of thymus at 7.5 to 15 mg/kg, ig measured after 6 days in presence of fluconazole; format: functional, organism-based; conditions: dose 7.5-15 mg/kg, time 6.0 day
Candida albicans [31] = assay: In vivo antifungal activity against FLC-resistant Candida albicans ATCC 14053 infected in Balb/c mouse assessed as restoration of normal kidney morphology at 15 mg/kg, ig measured after 6 days by H and E staining based histopathological analysis; format: functional, organism-based; conditions: time 6.0 day
Candida albicans [32] = assay: In vivo antifungal activity against FLC-resistant Candida albicans ATCC 14053 infected in Balb/c mouse assessed as restoration of normal glomeruli morphology at 15 mg/kg, ig measured after 6 days by H and E staining based histopathological analysis; format: functional, organism-based; conditions: time 6.0 day
Candida albicans [33] = assay: In vivo antifungal activity against FLC-resistant Candida albicans ATCC 14053 infected in Balb/c mouse assessed as restoration of normal lung morphology at 15 mg/kg, ig measured after 6 days by H and E staining based histopathological analysis; format: functional, organism-based; conditions: time 6.0 day
Candida albicans [34] = assay: In vivo antifungal activity against FLC-resistant Candida albicans ATCC 14053 infected in Balb/c mouse assessed as reduction in renal injury at 15 mg/kg, ig measured after 6 days by H and E staining based histopathological analysis; format: functional, organism-based; conditions: time 6.0 day
Candida albicans [35] = assay: In vivo antifungal activity against FLC-resistant Candida albicans ATCC 14053 infected in Balb/c mouse assessed as reduction in infiltration of inflammatory cells at 15 mg/kg, ig measured after 6 days by H and E staining based histopathological analysis; format: functional, organism-based; conditions: time 6.0 day
Candida albicans [36] = assay: In vivo antifungal activity against FLC-resistant Candida albicans ATCC 14053 infected in Balb/c mouse assessed as reduction in internal fungal growth at 7.5 to 15 mg/kg, ig measured after 6 days in presence of fluconazole by H and E staining based histopathological analysis; format: functional, organism-based; conditions: dose 7.5-15 mg/kg, time 6.0 day
[37] = Cytotoxicity against human 16-HBE cells assessed as cell survival at 90 ug/ml measured after 24 hrs by MTS assay relative to control; format: toxicity, cell-based; conditions: 16-HBE cells (16HBE14o-), at 90 µg/mL, read-out: Survival

Compound: CN1CCN(c2nc3ccccc3cc2/C=C/C(=O)c2ccc(N3CCN(Cc4ccc(C(F)(F)F)cc4)CC3)cc2)CC1
- MIC80 (Candida albicans [1]): > 40 mg/L
- MIC80 (Candida albicans [2]): > 40 mg/L
- MIC80 (Candida albicans [3]): > 40 mg/L
- MIC80 (Candida albicans [4]): > 40 mg/L
- MIC80 (Candida albicans [5]): > 40 mg/L
- MIC80 (Candida albicans [6]): > 40 mg/L
- MIC80 (Candida albicans [7]): 0.54 mg/L
- MIC80 (Candida albicans [8]): 5.67 mg/L
- MIC80 (Candida albicans [9]): 1.28 mg/L
- MIC80 (Candida albicans [10]): 1.12 mg/L
- MIC80 (Candida albicans [11]): 1.22 mg/L
- MIC80 (Candida albicans [12]): 5.58 mg/L
- MIC80 (Candida albicans [13]): 0.87 mg/L
- fractional inhibitory concentration index (FICI) (Candida albicans [14]): 0.14
- fractional inhibitory concentration index (FICI) (Candida albicans [15]): 0.03
- fractional inhibitory concentration index (FICI) (Candida albicans [16]): 0.03
- fractional inhibitory concentration index (FICI) (Candida albicans [17]): 0.15
- fractional inhibitory concentration index (FICI) (Candida albicans [18]): 0.02
- fractional inhibitory concentration index (FICI) (Candida albicans [19]): 0.02
- Activity (Candida albicans [20]): Dose-Dependent Effect
- inhibition (Candida albicans [21]): inactive
- inhibition (Candida albicans [22]): Active
- inhibition (Candida albicans [23]): inactive
- inhibition (Candida albicans [24]): inactive
- Activity (Candida albicans [25]): Active
- Activity [26]: Non-Toxic
- Activity [27]: Non-Toxic
- Activity [28]: Toxic
- Activity (Candida albicans [29]): inactive
- Activity (Candida albicans [30]): Active
- Activity (Candida albicans [31]): inactive
- Activity (Candida albicans [32]): inactive
- Activity (Candida albicans [33]): inactive
- Activity (Candida albicans [34]): inactive
- Activity (Candida albicans [35]): inactive
- Activity (Candida albicans [36]): Active
- viability at 24 h, 90 ug/ml [37]: 76.5%
